Results published in paper PMC9820345, “Metal Complexes of a 5-Nitro-8-Hydroxyquinoline-Proline Hybrid with Enhanced Water Solubility Targeting Multidrug Resistant Cancer Cells” (International Journal of Molecular Sciences, 2022).
Where two headings read alike, the source gives them in different places.

Legend:
[1] = Cyclic voltammetry of the iron complexes; type: physicochemical; conditions: for E1/2 vs. NHE: iron(III/II)-ligand (1:3), pH 7.40
[2] = Formation constants of Fe(III) complexes by UV-vis spectrophotometric titrations; type: physicochemical; conditions: I = 0.1 M KCl, 25.0 °C
Experimental: UV-vis titrations were performed to determine the formation (overall stability) constants (β) for the complexes of HQNO2-L-Pro formed with Fe(III) and Fe(II) ions (Figures S10 and S11). In the latter case, titrations were performed in a laboratory glove box. The calculations were complicated by the overlapping feature of the ligand bands and the charge transfer bands of the complexes. Based on the absorption spectra Figures S10a and S11a), formation of mono, bis, and tris complexes were found in both chemical systems; obtained constants are collected in Table 2. […] Based on the concentration distribution diagrams (see Figure S10b for Fe(III) and Figure S11b for Fe(II)), it can be concluded that the tris complexes are the dominant species at pH 7.4 in the case of Fe(III), while with Fe(II) both tris and bis-ligand species are formed under the conditions of the titrations.
An Agilent Cary 8454 diode array spectrophotometer (Santa Clara, CA, USA) was used to obtain UV-vis spectra in the wavelength range 200–1000 nm, while spectra were recorded for the Fe(II)-containing samples using an Avantes (Avantes B.V., Apeldoorn, The Nederlands) AvaSpec-ULS2048CL-EVO spectrometer with an AvaLight-DHc light source and FDP-7UVIR200-2-VAR transmission dip probe. The titrations for the Fe(II)-containing samples were performed in a laboratory glove box (GP(Campus), Jacomex) (O2 content ≤ 1 ppm). The path length (ℓ) was 1 cm in most cases (the actual ℓ is always indicated in the legends of the figures). The concentrations of the ligands and complexes were between 40 and 200 µM, and 0.2 M KNO3 for the organometallic complexes or 0.1 M KCl for the Fe(II/III), Cu(II), and Zn(II) complexes were used to adjust the constant ionic strength. For HSA containing samples, complex concentrations were 50 µM, and 0.5, and 2 equiv. biomolecules were added for kinetic studies, respectively. For HSA model containing samples, complex concentrations were 50 µM, and the model concentrations were 0–150 µM and 0–500 µM, respectively, and the pH was 7.4 (PBS’). Spectra were always background and baseline corrected. […]

[3] = Proton dissociation constants (pKa) of the ligand by pH-potentiometric, UV-vis and 1H NMR titrations; type: physicochemical; conditions: for pKa: 25.0 °C
Experimental: Characterization of the protonation/deprotonation equilibrium processes of a bioactive molecule is important to reveal its actual chemical form and charge at a given pH. The proton dissociation constant (Ka) is a key physico-chemical parameter since it has an impact on many biopharmaceutical characteristics such as lipophilicity, water solubility, and albumin binding, which in turn directly influences pharmacokinetics. The pKa values of the protonated HQNO2-L-Pro were determined by pH-potentiometric, UV-vis (Figure 1a), and ^1H NMR spectroscopic titrations (Table 1).
The pH-potentiometric measurements were carried out at 25.0 ± 0.1 °C in water in the pH range between 2.0 and 11.5 at a constant ionic strength of 0.2 M KNO3. The titrations were performed in a carbonate-free KOH solution (0.20 or 0.10 M). The exact concentrations of HNO3, HCl, and KOH solutions were always determined by pH-potentiometric titrations. An Orion 710A pH-meter equipped with a Metrohm combined electrode (type 6.0234.100) and a Metrohm 665 Dosimat burette were used for the measurements. […] The average water ionization constant (pKw) was determined as 13.76 ± 0.01, which is in good agreement with the literature data. In the case of the titrations in 30% (v/v) DMSO/H2O, the calibration of the pH-potentiometric system was conducted as in our former works. Samples were degassed by bubbling purified argon through them for about 10 min prior to the measurements, and the inert gas was also passed over the solutions during the titrations. Stoichiometry of the species and their equilibrium constants were obtained similarly to that performed in our previous works, with the use of computer program Hyperquad2013 [50].
An Agilent Cary 8454 diode array spectrophotometer (Santa Clara, CA, USA) was used to obtain UV-vis spectra in the wavelength range 200–1000 nm, while spectra were recorded for the Fe(II)-containing samples using an Avantes (Avantes B.V., Apeldoorn, The Nederlands) AvaSpec-ULS2048CL-EVO spectrometer with an AvaLight-DHc light source and FDP-7UVIR200-2-VAR transmission dip probe. The titrations for the Fe(II)-containing samples were performed in a laboratory glove box (GP(Campus), Jacomex) (O2 content ≤ 1 ppm). The path length (ℓ) was 1 cm in most cases (the actual ℓ is always indicated in the legends of the figures). The concentrations of the ligands and complexes were between 40 and 200 µM, and 0.2 M KNO3 for the organometallic complexes or 0.1 M KCl for the Fe(II/III), Cu(II), and Zn(II) complexes were used to adjust the constant ionic strength. For HSA containing samples, complex concentrations were 50 µM, and 0.5, and 2 equiv. biomolecules were added for kinetic studies, respectively. For HSA model containing samples, complex concentrations were 50 µM, and the model concentrations were 0–150 µM and 0–500 µM, respectively, and the pH was 7.4 (PBS’). Spectra were always background and baseline corrected. The computer program HypSpec was used to obtain stability constants. Hydrolysis constants of the Fe(III), Fe(II), RuCym, and RhCp* species were included in the speciation models (see Table S4 with the data taken from References).
The Bruker Avance III HD Ascend 500 Plus instrument (Billerica, MA, USA) was used for NMR studies. ^1H NMR spectroscopic measurements were carried out with a WATERGATE water suppression pulse scheme in the presence of 10% (v/v) D2O/H2O in most cases. DSS internal standard was added to samples to obtain reference peaks. ^1H NMR titrations were carried out for the ligand alone, and for the organometallic complexes in the presence of 0.2 M KNO3. With the AHA and FHA model peptides, the measurements were performed at pH 7.4 (PBS’) at 0.5 or 1 mM metal complex concentrations, and 1:1, 1:2 or 2:1 peptide-to-metal complex ratios were applied. NMR titrations were also performed for the Zn(II)-ligand systems using 0.1 M KCl ionic strength. […]

[4] = at 1 μM concentration; pH 7.4
Experimental: Thus, a ligand displacement study was performed spectrophotometrically using 2,2’-bipyridine as the competitor (Figure S21) to determine the stability constant for the RhCp* complex at pH 7.4.
SUPPLEMENTARY INFORMATION
Figure S 20. UV-vis spectr a recorded for the (a) RhCp* − HQNO2-L-Pro (1:1) and (b) RuCym −
HQNO2-L-Pro (1:1) systems at different times at pH 1. Absorbance values plotted against the time
measured in the (c) RhCp* − HQNO2-L-Pro (1:1) at 435 nm, and (d) RuCym − HQNO2-L-Pro (1:1) at
410 nm at pH 1 and 4 (indicated in the figure). { cligand = 50 μM; cRhCp* or RuCym = 50 μM; l = 1 cm; t =
Figure S 21. (a) UV -vis spectra of the R hCp*-HQNO2-L-Pro complex at various equivalents of 2,2’ -
bipyridine at pH 7.4 after 24 h waiting time and (b) the measured absorbance values at 4 35 nm plotted
against the 2,2’-bipyridine:complex ratio.
complex taken from Ref. [74]. {ccomplex = 50 μM; PBS’ buffer; l = 1 cm; t = 25.0 °C}
c (2,2'-bipyridine) / c (complex) […]

| E1/2 vs. NHE ([1]; scan rate 0.005 V/s) | E1/2 vs. NHE ([1]; scan rate 0.010 V/s) | E1/2 vs. NHE ([1]; scan rate 0.015 V/s) | E1/2 vs. NHE ([1]; scan rate 0.020 V/s) | E1/2 vs. NHE ([1]; scan rate 0.025 V/s) | formal potential E'1/2 of the Fe(III)/Fe(II) redox pair of the iron complexes ([1]; pH 7.4, 1:3 metal-to-ligand ratio, ciron = 0.5 mM) | logβ [M(HL)2] [2] | logβ [M(HL)3] [2] | logβ [M(HL)] [2] | pKa ([3]; 0.10 M KCl, UV-vis, I = 0.10 M KCl, cligand 40 μM, read-out: pKa (NProH+)) | pKa ([3]; 0.10 M KCl, UV-vis, I = 0.10 M KCl, cligand 40 μM, read-out: pKa (OH)) | pKa ([3]; 0.20 M KNO3, 1H NMR, I = 0.20 M KNO3, cligand 1000 μM, read-out: pKa (NProH+)) | pKa ([3]; 0.20 M KNO3, 1H NMR, I = 0.20 M KNO3, cligand 1000 μM, read-out: pKa (OH)) | pKa ([3]; 0.20 M KNO3, UV-vis, I = 0.20 M KNO3, cligand 40 μM, read-out: pKa (NProH+)) | pKa ([3]; 0.20 M KNO3, UV-vis, I = 0.20 M KNO3, cligand 40 μM, read-out: pKa (OH)) | fraction of H2L ([3]; pH 5.5) | fraction of HL− ([3]; pH 5.5) | pKa ([3]; water, 0.20 M KNO3, pH-potentiometry, I = 0.20 M KNO3, cligand 1700 μM, read-out: pKa (NProH+)) | pKa ([3]; water, 0.20 M KNO3, pH-potentiometry, I = 0.20 M KNO3, cligand 1700 μM, read-out: pKa (OH)) | dissociation of the complex expected [4] | Structure (SMILES) |
| --- | --- | --- | --- | --- | --- | --- | --- | --- | --- | --- | --- | --- | --- | --- | --- | --- | --- | --- | --- | --- |
| +0.207 V | +0.216 V | +0.218 V | +0.217 V | +0.214 V | +215 ± 5 mV vs. NHE | 38.76 ± 0.03 | 55.66 ± 0.03 | 19.75 ± 0.03 | 10.75 ± 0.03 | 5.43 ± 0.03 | > 10.5 | 5.56 ± 0.03 | 10.78 ± 0.03 | 5.5 ± 0.03 | 47% | 53% | 10.68 ± 0.07 | 5.57 ± 0.09 |  | O=C(O)[C@@H]1CCCN1Cc1cc([N+](=O)[O-])c2cccnc2c1O [HQNO2-L-Pro, (2S)-1-((8-hydroxy-5-nitroquinolin-7-yl)methyl)pyrrolidin-1-ium-2-carboxylate] |
|  |  |  |  |  |  |  |  |  |  |  |  |  |  |  |  |  |  |  | < 1% | CC1=C(C)[C](C)([Rh]([Cl])[O]c2c(C[NH+]3CCC[C@H]3C(=O)O)cc([N+](=O)[O-])c3cccnc23)C(C)=C1C.[Cl-] [RhCp*-HQNO2-L-Pro, [RhCp*(HQNO2-L-Pro)Cl]Cl] |
